Source: patent US20240124483A1, “Methods for the Treatment of Fibrotic Disease” (SHY Therapeutics, LLC, priority 2021, published 2024)
Like-named read-outs stand apart in the source and are kept apart here.

What was measured:
KRas G12D mutant = KRas G12D mutant (Homo sapiens (Human), UniProt P01116, G12D); test: Ras GTP Binding Domain Inhibition Assay, KRas G12D mutant; conditions: for inhibition at 20 µM: Table 7; for KRas G12D mutant + SOS: % inh. / KRas G12D mutant: % inh.: 20 uM, Table 8
Outline: (§1)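 His-tagged GTPase immobilized on nickel-coated plates (10-30 μg/mL, overnight, 4° C), then exposed to compound (20 μM or serial dilution for IC50, 1% DMSO) for 3 h at room temperature, with or without His-tagged Sos (residues 556-1049) in the final hour. Bound Cy3-GTP or Cy5-GTP (100 nM, 45 min) was read by fluorescence after washing.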

MiaPaca2 = MiaPaca2 proliferation; format: cell-based; conditions: Homo sapiens, MIA PaCa-2; for inhibition at 10 µM: read-out: % inh of proliferation in MiaPaca2
KRas Q61H mutant = KRas Q61H mutant (Homo sapiens (Human), UniProt P01116, Q61H); test: Ras GTP Binding Domain Inhibition Assay, KRas Q61H mutant; conditions: 20 μM
Outline: as §1

Smad2/3 phosphorylation = test: Phospho-Smad2/3 Inhibition Assay in Panc-1 (western blot); format: cell-based; conditions: Homo sapiens; 10 μM, 3 hours; PANC-1 stimulated with 10 ng/ml TGF-b1 for 1 hour; read-out: % inh of Smad2/3 phosphorylation in PANC-1
Outline: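 Serum-starved cells (0.5% FBS overnight) pretreated 3 h at 37 °C with compound at 10 μM or serial dilutions for IC50, in 0.3% DMSO. TGF-b1 10 ng/ml stimulation: 1 h for Panc-1 (human), 20 min for C2C12 (mouse). Phospho-Smad2 (Ser465/467) and phospho-Smad3 (Ser423/425) measured by western blot of lysates.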

KRas G12C mutant = KRas G12C mutant (Homo sapiens (Human), UniProt P01116, G12C); test: Ras GTP Binding Domain Inhibition Assay, KRas G12C mutant
Outline: as §1

[1] = + SOS, read-out: KRas G12D mutant + SOS: % inh.
[2] = without SOS, read-out: KRas G12D mutant: % inh.
[3] = + SOS, read-out: KRas Q61H mutant + SOS: % inh.
[4] = without SOS, read-out: KRas Q61H mutant: % inh.
[5] = + SOS, read-out: KRas G12C mutant + SOS: % inh.
[6] = without SOS, read-out: KRas G12C mutant: % inh.

Chain of KRas G12C mutant (P01116 other isoform, or with tags, fused parts or gaps G12C): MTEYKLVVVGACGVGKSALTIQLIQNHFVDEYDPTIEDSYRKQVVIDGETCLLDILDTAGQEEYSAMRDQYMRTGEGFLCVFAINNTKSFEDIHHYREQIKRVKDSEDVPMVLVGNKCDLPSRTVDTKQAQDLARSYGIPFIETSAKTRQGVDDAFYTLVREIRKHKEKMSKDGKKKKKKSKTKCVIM
Chain of KRas G12D mutant (P01116 other isoform, or with tags, fused parts or gaps G12D): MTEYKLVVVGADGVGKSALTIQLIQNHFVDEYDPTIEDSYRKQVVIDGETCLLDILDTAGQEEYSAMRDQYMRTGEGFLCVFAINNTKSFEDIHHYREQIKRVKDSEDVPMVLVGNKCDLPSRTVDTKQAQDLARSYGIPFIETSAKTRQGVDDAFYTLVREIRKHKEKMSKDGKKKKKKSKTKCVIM
Chain of KRas Q61H mutant (P01116 other isoform, or with tags, fused parts or gaps Q61H): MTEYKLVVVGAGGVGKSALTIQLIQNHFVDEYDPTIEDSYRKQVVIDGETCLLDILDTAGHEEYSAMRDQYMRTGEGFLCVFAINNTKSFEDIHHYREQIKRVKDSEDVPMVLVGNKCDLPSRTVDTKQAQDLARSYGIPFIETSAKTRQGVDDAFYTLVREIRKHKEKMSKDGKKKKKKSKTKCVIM

Row | SMILES | inhibition at 20 µM (KRas G12D mutant; [1]) | KRas G12D mutant + SOS: % inh. (KRas G12D mutant; + SOS) | inhibition at 20 µM (KRas G12D mutant; [2]) | KRas G12D mutant: % inh. (KRas G12D mutant; without SOS) | IC50 (MiaPaca2) | inhibition at 10 µM (MiaPaca2) | inhibition at 20 µM (KRas Q61H mutant; [3]) | inhibition at 20 µM (KRas Q61H mutant; [4]) | inhibition at 10 µM (Smad2/3 phosphorylation) | inhibition at 20 µM (KRas G12C mutant; [5]) | inhibition at 20 µM (KRas G12C mutant; [6])
1 | COc1cccc(Nc2nc(-c3nccn3C)nc3sc(-c4ccn(C(C)C)n4)c(C)c23)c1 [Compound 17, 6-(1-Isopropyl-1H-pyrazol-3-yl)-N-(3-methoxyphenyl)-5-methyl-2-(1-methyl-1H-imidazol-2-yl)thieno[2,3-d]pyrimidin-4-amine] | 46 to 75% | C (C = 46-75% inhibition) | 46 to 75% | C (C = 46-75% inhibition) | 5 to 10 µM | 76 to 100% | 46 to 75% | 26 to 45% | 46 to 75% | 76 to 100% | 46 to 75%
2 | COc1cccc(Nc2nc(-c3nccn3C)nc3sc(-c4ccn(C(C)C)n4)c(C)c23)n1 [Compound 18, 6-(1-Isopropyl-1H-pyrazol-3-yl)-N-(6-methoxypyridin-2-yl)-5-methyl-2-(1-methyl-1H-imidazol-2-yl)thieno[2,3-d]pyrimidin-4-amine] | 46 to 75% | C (C = 46-75% inhibition) | 76 to 100% | D (D = 76-100% inhibition) | < 1 µM | 76 to 100% | 46 to 75% | 46 to 75% | 46 to 75% | 46 to 75% | 46 to 75%
3 | COc1cc(Nc2nc(-c3nccn3C)nc3sc(-c4ccn(C(C)C)n4)c(C)c23)ncn1 [Compound 19, 6-(1-Isopropyl-1H-pyrazol-3-yl)-N-(6-methoxypyrimidin-4-yl)-5-methyl-2-(1-methyl-1H-imidazol-2-yl)thieno[2,3-d]pyrimidin-4-amine] | 46 to 75% | C (C = 46-75% inhibition) | 26 to 45% | B (B = 26-45% inhibition) | 1 to 4.99 µM | 76 to 100% | 76 to 100% | 76 to 100% | 76 to 100% | 76 to 100% | 46 to 75%
4 | COCCOCCNc1nc(-c2nccn2C)nc2sc(-c3ccn(C(C)C)n3)c(C)c12 [Compound 21, 6-(1-Isopropyl-1H-pyrazol-3-yl)-N-(2-(2-methoxyethoxy)ethyl)-5-methyl-2-(1-methyl-1H-imidazol-2-yl)thieno[2,3-d]pyrimidin-4-amine] | 76 to 100% | D (D = 76-100% inhibition) | 76 to 100% | D (D = 76-100% inhibition) | 5 to 10 µM | 76 to 100% | 76 to 100% | 76 to 100% | 0% | 76 to 100% | 46 to 75%
5 | Cc1c(-c2ccn(C(C)C)n2)sc2nc(-c3nccn3C)nc(NCCN3CCOCC3)c12 [Compound 22, 6-(1-Isopropyl-1H-pyrazol-3-yl)-5-methyl-2-(1-methyl-1H-imidazol-2-yl)-N-(2-morpholinoethyl)thieno[2,3-d]pyrimidin-4-amine] | 76 to 100% | D (D = 76-100% inhibition) | 76 to 100% | D (D = 76-100% inhibition) | 5 to 10 µM | 76 to 100% | 76 to 100% | 76 to 100% | 0% | 76 to 100% | 76 to 100%
6 | Cc1c(-c2ccn(C(C)C)n2)sc2nc(-c3nccn3C)nc(NCCN3CCS(=O)(=O)CC3)c12 [Compound 23, 4-(2-((6-(1-Isopropyl-1H-pyrazol-3-yl)-5-methyl-2-(1-methyl-1H-imidazol-2-yl)thieno[2,3-d]pyrimidin-4-yl)amino)ethyl)thiomorpholine 1,1-dioxide] | 76 to 100% | D (D = 76-100% inhibition) | 76 to 100% | D (D = 76-100% inhibition) | > 10 µM | 0% | 76 to 100% | 76 to 100% | 0% | 76 to 100% | 46 to 75%
